From patent US10828344B2, “Antimicrobial yeast preparation and methods for preparation and use thereof” (priority 2016, dated 2020)
Marks after values point to notes of the source that are not given here.

Tests used:
[1] = system: Escherichia coli 0157:H7 ATCC 700728; assay: Minimal Inhibitory Concentration test (OD) with bactericidal/static check; format: cell-based; settings: for Bactericidal or Static check of optically clear MIC tubes, Escherichia coli 0157:H7 ATCC 700728: 0 CFU/ml needed for bactericidal
Method: (§1) Sterile, 12×75 mm plastic test tubes were used to perform the test. 1 mL of the test compositions were placed in the appropriate labeled tubes. 1 mL of each adjusted bacterial inoculum was added to each appropriate labeled tube in the dilution series and mixed. The tubes were closed with loose caps. The tubes were then incubated at 37° C. for 24 hours with the exception of the Campylobacter tubes, which were incubated microaerophilically at 42° C. for 48 hours. At the end of the incubation phases the tubes were examined for turbidity. All optically clear tubes were plated to agar plates to determine if the test article was bactericidal or bacteriostatic. A product was considered to be “bactericidal” if less than 3 CFU were detected (Clear tubes with a few CFU), and “bacteriostatic” if greater the 3 CFU were detected (Clear tubes and growth detected).
(§2) The tubes were examined for turbidity, indicating growth of the organism. […] The lowest concentration of the agent that inhibits growth of the organism, as detected by lack of visual turbidity (matching the negative control) was designated the minimum inhibitory concentration (MIC).
(§3) Additional experiments were performed to determine bactericidal and bacteriostatic effects of preparation made from wine lees from different varietals, effects of aging of preparations on bactericidal and bacteriostatic effectiveness, and to compare effectiveness to conventional antibiotic treatment. Methods were as described above for testing bacteriostatic and bactericidal effects. Preparations were tested against Salmonella enterica (ATCC 8759) and E. coli 0157:H7 (ATCC 700728).
(§4) The following preparations were tested: a lees preparation from Chardonnay grapes that had not been enzymatically treated and had been prepared approximately 2 months before testing (CH16), a lees preparation from Pinot Noir grapes that had not been enzymatically treated and had been prepared approximately 14 months before testing (PNC15), a lees preparation from Pinot Noir grapes that had not been enzymatically treated and had been prepared approximately 2 months before testing (PNC16), a lees preparation from Cabernet Franc grapes that had been enzymatically treated and had been prepared approximately 2 months before testing (CFE16), CELMANAX™ (SCP) (hydrolyzed yeast), and salinomycin, 0.005% solution (antibiotic).

[2] = system: Salmonella enterica ATCC 8759; assay: as above; format: cell-based; settings: 0 CFU/ml needed for bactericidal
Method: as §1, §2, §3, §4

Cryptosporidium oocytes = assay: In vivo calf study: fecal shedding of Cryptosporidium oocytes; design: species or system Cryptosporidium (in Holstein calves)
Method: (§5) An in vivo study was performed to compare effects of lees-based preparations as disclosed herein to conventional commercially available product yeast fermentation product and Decoquinate on performance and health of neonatal Holstein calves. […] PNC16 was compared with CELMANAX™ (SCP) (hydrolyzed yeast) and an antibiotic, DECCOX®-M manufactured by Zoetis Inc., Decoquinate.
(§6) The study was conducted at Spruce Haven Farms, Union Springs, N.Y., a commercial dairy consisting of 1,800 mature cows. There were thirty calf hutches available to conduct the trial that were aligned in one row. The study consisted of thirty female Holstein calves. As calves were born they were successively placed on one of four treatments until 28 calves were assigned, then the remaining 2 calves were assigned to treatment 2 and 3 respectively.
(§7) Fecal samples (˜10-20 g) were obtain via digital stimulation from each calf on day 7, 14 and 21 of life. Samples were sent to the Cornell Diagnostic Laboratory for zinc sulfate floatation to determine type and degree of fecal shedding. Body temperatures were take just prior to fecal collections on day 7, 14 and 21 of life. Fecal consistency scores: were recorded for each calf daily using the following scale: 1=soft, solid consistency, no fluid, 2=semi-solid, mostly solid, 3=runny: semi solid, mostly fluid, 4=watery, all fluid 5=watery with blood.

[3] = In vivo calf study: rectal temperature and fecal consistency score; design: species or system Holstein calves
Method: as §5, §6, §7

cryptosporidiosis = settings: Moore (2003); cited from earlier work
[4] = In vivo calf study: body weight gain; design: species or system Holstein calves
Method: An in vivo study was performed to compare effects of lees-based preparations as disclosed herein to conventional commercially available product yeast fermentation product and Decoquinate on performance and health of neonatal Holstein calves. Lees was prepared as described above (a lees preparation from Pinot Noir grapes that had not been enzymatically treated and had been prepared approximately 6 months before testing (PNC16)). PNC16 was compared with […]) (hydrolyzed yeast) and an antibiotic, DECCOX®-M manufactured by Zoetis Inc., Decoquinate. The study was conducted at Spruce Haven Farms, Union Springs, N.Y., a commercial dairy consisting of 1,800 mature cows. There were thirty calf hutches available to conduct the trial that were aligned in one row. The study consisted of thirty female Holstein calves. As calves were born they were successively placed on one of four treatments until 28 calves were assigned, then the remaining 2 calves were assigned to treatment 2 and 3 respectively. […] Calves were housed in fiberglass hutches (4'×8') with an outside run (4'×6') with straw bedding inside the hutch. Within 2 hr. of birth, calves were offered 4 lb. of colostrum. Thereafter, pasteurized whole milk was offered twice daily (08:00 and 16:00 h) and water and dry calf starter was available at all times in removable buckets. During the morning feeding the liquid (CEL or PNC16) or dry (22.7 mg) test articles were dissolved in the milk. Calves body weights were recorded when moved into the hutches and again at 21 d of life.

Eimeria species = assay: In vivo calf study: fecal shedding of Eimeria species; design: species or system Eimeria (in Holstein calves); settings: day 21 of age (FIG. 4); Control 71.5%
Method: as §5, §6, §7

[5] = In vivo calf study: hematology and haptoglobin; design: species or system Holstein calves; settings: 10 day old calves
Method: An in vivo study was performed to compare effects of lees-based preparations as disclosed herein to conventional commercially available product yeast fermentation product and Decoquinate on performance and health of neonatal Holstein calves. Lees was prepared as described above (a lees preparation from Pinot Noir grapes that had not been enzymatically treated and had been prepared approximately 6 months before testing (PNC16)). PNC16 was compared with […]) (hydrolyzed yeast) and an antibiotic, DECCOX®-M manufactured by Zoetis Inc., Decoquinate. The study was conducted at Spruce Haven Farms, Union Springs, N.Y., a commercial dairy consisting of 1,800 mature cows. There were thirty calf hutches available to conduct the trial that were aligned in one row. The study consisted of thirty female Holstein calves. As calves were born they were successively placed on one of four treatments until 28 calves were assigned, then the remaining 2 calves were assigned to treatment 2 and 3 respectively. […] Blood samples were collected via jugular vein-puncture before the pm milk feeding on day 10 of life. Samples were collected in heparinized vacutainers. Whole blood was analyzed for hematology: red blood count, hematocrit, hemoglobin, mean cell volume, mean cell hemoglobin, mean cell hemoglobin concentration, red cell distribution width, reticulocyte, white blood cell: neutrophil, lymphocyte, monocyte, eosinophil, basophil, platelet, mean platelet volume, platelet, distribution width and procalcitonin. Plasma was obtained by centrifugation at 1,500×g for 15 min. Plasma samples were frozen (-40° C.) and shipped to the Michigan State University (DCPAH) laboratory for haptoglobin analysis.

[6] = 20 Mg/ml (ABX: salinomycin 0.005% solution)
[7] = 40 Mg/ml (ABX: salinomycin 0.005% solution)

CC[C@@H](C(=O)[C@@H](C)[C@@H](O)[C@H](C)[C@@H]1O[C@@H]([C@@H](CC)C(=O)O)CC[C@@H]1C)[C@H]1O[C@]2(C=C[C@@H](O)[C@]3(CC[C@@](C)([C@H]4CC[C@](O)(CC)[C@H](C)O4)O3)O2)[C@H](C)C[C@@H]1C [ABX, salinomycin]
Turbidity Reading (OD), Escherichia coli 0157:H7 ATCC 700728 [1]: .075^c OD
Bactericidal or Static check of optically clear MIC tubes, Escherichia coli 0157:H7 ATCC 700728 [1, 6]: 950 CFU/ml
Bactericidal or Static check of optically clear MIC tubes, Escherichia coli 0157:H7 ATCC 700728 [1, 7]: 950 CFU/ml
Bactericidal or Static check of optically clear MIC tubes, Salmonella enterica ATCC 8759 [2, 6]: 50,000 CFU/ml
Bactericidal or Static check of optically clear MIC tubes, Salmonella enterica ATCC 8759 [2, 7]: 50,000 CFU/ml

CCCCCCCCCCOc1cc2c(O)c(C(=O)OCC)cnc2cc1OCC [DECCOX ®, Decoquinate]
Cryptosporidium Oocytes/g of feces (Cryptosporidium oocytes; Day 1, Control 0): 0 Oocytes/g of feces
% of calves shedding Cryptosporidium oocytes (Cryptosporidium oocytes; Day 1, Control 0.0): 0.0%
% of calves shedding Cryptosporidium oocytes (Cryptosporidium oocytes; Day 7, Control 71.4): 28.6%
Cryptosporidium Oocytes/g of feces (Cryptosporidium oocytes; Day 7, Control 85638): 2^b Oocytes/g of feces
% of calves shedding Cryptosporidium oocytes (Cryptosporidium oocytes; Day 14, Control 85.0): 100.0%
Cryptosporidium Oocytes/g of feces (Cryptosporidium oocytes; Day 14, Control 14153): 209473^a Oocytes/g of feces
% of calves shedding Cryptosporidium oocytes (Cryptosporidium oocytes; Day 21, Control 28.6): 28.6%
Cryptosporidium Oocytes/g of feces (Cryptosporidium oocytes; Day 21, Control 368): 11^b Oocytes/g of feces
Fecal consistency score (FCS) ([3]; between day 12 and 17 d of life, scale 1-5, Control 2.3): 2.4
Rectal temperature ([3]; day 14, comparison in words): higher (p<005) than PNC16
clinical benefit as preventative treatment for cryptosporidiosis (cryptosporidiosis): no clinical benefit
Birth wt ([4]; baseline at birth, Control 40.4): 40.2 kg
Body wt gain ([4]; birth through day 21, Control 6.8): 7.3 kg
ADG ([4]; birth through day 21, Control .32): .35 kg/day
Day 21 wt ([4]; day 21 of life, Control 47.1): 47.6^b kg
Percent of calves shedding Eimeria (Eimeria species): 0%
Basophil (Baso) ([5]; Control 0.01): 0.00 K/ul
Monocyte (Mono) ([5]; Control 0.02): 0.05 K/ul
Eosinophil (Eosin) ([5]; Control 0.03): 0.08 K/ul
Neutrophil (NEUT) ([5]; Control 3.7): 5.1 K/ul
Lymphocyte (LYMPH) ([5]; Control 4.2): 2.4 K/ul
Mean Platelet Volume (MPV) ([5]; Control 5.5): 5.6 fL
Platelet Distribution Width (PDW) ([5]; Control 6.34): 7.72^a fL
Reticulocyte (Ret) ([5]; Control 7.13): 1.49^b K/ul
Red Blood Count (RBC) ([5]; Control 7.4): 7.1 M/uL
White Blood Cell (WBC) ([5]; Control 7.96): 7.67^b K/ul
Hemoglobin (HBG) ([5]; Control 9.4): 8.9 g/dL
Mean Cell Hemoglobin (MCH) ([5]; Control 12.6): 12.4 pg
Hematocrit (HCT) ([5]; Control 29.8): 28.5%
Red Cell Distribution Width (RDW) ([5]; Control 31.4): 30.7%
Mean Cell Hemoglobin Concentration (MCHC) ([5]; Control 31.5): 31.4 g/dL
Mean Cell Volume (MCV) ([5]; Control 40.0): 39.8 fL
Platelet (Plt) ([5]; Control 654.7): 579.8^b K/ul
Neutrophil/Lymphocyte Ratio (NLR) ([5]; Control .87): 2.11^a
Percentages Baso ([5]; percent of white cells, Control 0.19): 0.00%
Percentages Mono ([5]; percent of white cells, Control 0.21): 0.63%
Percentages Eosin ([5]; percent of white cells, Control 0.34): 0.98%
Percentages Neutrophil ([5]; percent of white cells, Control 48.38): 66.63^a %
Percentages Lymphocyte ([5]; percent of white cells, Control 50.87): 31.75^b %
Haptoglobin (Hp) ([5]; plasma, Control 24.13): 64.5 µg/mL
